Measured values: patent publication US9115092B2, “Substituted quinazoline and pyrido-pyrimidine derivatives” (Asana Biosciences, LLC, priority 2010, dated 2015)

Experiments:
[1] = molecular target: T1, PI3Kα (wild-type), P110/P85α (Homo sapiens, UniProt P42336); assay: PI3 Kinase TR-FRET assay, PI3Kα (wild-type); assay type: biochemical
T1 construct: made in house; host or cells: SF9 insect cells
Protocol: The ability of compounds of the invention to inhibit PI3K activity was determined in a homogeneous TR-FRET assay using a PI3K assay kit (Millipore, USA; cat #33-016) according to manufacturer's instructions. PI3-Kinases (isoforms α, β, γ and δ) catalyze the phosphorylation of phosphatidylinositol, PIP2 to PIP3 in the presence of ATP and Mg^2+. The PIP3 product is detected by displacement of biotin-PIP3 from an energy transfer complex consisting of Europium labeled anti-GST monoclonal antibody, a GST-tagged PH domain, biotinylated PIP3 and Streptavidin-APC. Excitation of Europium in the complex results in an energy transfer to the APC and a fluorescence emission at 665 nm. The PIP3 product displaces biotin-PIP3 from the complex resulting in a loss of energy transfer and thus a decrease in signal.
To test for the ability of compounds to inhibit the activity of PI3Kα (wild-type), exemplary compounds of formula (I) were dissolved in DMSO and directly distributed into 384-well plates at a volume of 0.5 μL. 14.5 μL of P110/P85α/PIP2 mixture in buffer (obtained from the Millipore kit) containing MgCl2 (40 mM) and DTT (5 mM) was added to compound wells and incubated for 60 min at room temperature. P110/P85α was expressed in SF9 insect cells and purified nickel column extraction. Five ng of wild-type P110/P85α was used in the assay. The kinase reaction was started by the addition of ATP. The assay concentrations of both PIP2 and ATP were 10 μM. The reaction mixture was incubated for 30 min at room temperature and was terminated by the addition of stop mix and detection mix. Fluorescence was measured at 615 and 665 nm upon excitation at 340 nm in a Victor™ V5 fluorometer (Perkin Elmer, USA). The fluorescence emission ratio at 665 to 615 nm, proportional to the kinase activity, was plotted against the compound concentration to generate dose-response curves and IC50 values were determined using GraphPad Prism® 5 software.

mTOR kinase = molecular target: T2, mTOR kinase (Homo sapiens, UniProt P42345); assay: mTOR kinase TR-FRET assay; assay type: biochemical; details: read-out: mTO R
T2 construct: purchased Millipore, USA
Protocol: Compound inhibition for mTOR kinase was determined in a homogeneous TR-FRET assay using the Lance® ULight-p70 S6K (Thr 389) peptide (obtained from Perkin-Elmer). The ULight™-labeled synthetic peptide contains the amino acid residues surrounding Thr389 of human p70 S6K. The ULight-p70 S6K peptide is phosphorylated at Thr389 by mTOR. Phosphorylation motif: LGFTYVAP as substrate.
The compound dilution was carried out in 100% DMSO followed by a buffer dilution. The reaction buffer was HEPES (50 mM pH 7.5), EGTA (1 mM), MnCl2 (3 mM). Test compounds at various concentrations were pre-incubated with mTOR (Millipore, USA; 5 ng) for 60 min, and then the Lance® ULight-p70 S6K (Thr 389) peptide (50 nM) was added along with ATP (20 μM). After incubating the reaction mixture for 60 min at room temperature, the kinase reaction was terminated by the addition of EDTA (10 mM) followed by the addition of detection mix, i.e., 1 nM Eu-labeled anti-phospho-substrate antibody (Perkin Elmer, USA). The fluorescence emission at […] was measured upon excitation at 340 nm. IC50 values were subsequently determined using a sigmoidal dose-response curve (variable slope) in GraphPad Prism® 5 software.
Compounds of formula (I) caused inhibition of mTOR kinase activity as determined by this assay.

T1 sequence (P42336 whole entry): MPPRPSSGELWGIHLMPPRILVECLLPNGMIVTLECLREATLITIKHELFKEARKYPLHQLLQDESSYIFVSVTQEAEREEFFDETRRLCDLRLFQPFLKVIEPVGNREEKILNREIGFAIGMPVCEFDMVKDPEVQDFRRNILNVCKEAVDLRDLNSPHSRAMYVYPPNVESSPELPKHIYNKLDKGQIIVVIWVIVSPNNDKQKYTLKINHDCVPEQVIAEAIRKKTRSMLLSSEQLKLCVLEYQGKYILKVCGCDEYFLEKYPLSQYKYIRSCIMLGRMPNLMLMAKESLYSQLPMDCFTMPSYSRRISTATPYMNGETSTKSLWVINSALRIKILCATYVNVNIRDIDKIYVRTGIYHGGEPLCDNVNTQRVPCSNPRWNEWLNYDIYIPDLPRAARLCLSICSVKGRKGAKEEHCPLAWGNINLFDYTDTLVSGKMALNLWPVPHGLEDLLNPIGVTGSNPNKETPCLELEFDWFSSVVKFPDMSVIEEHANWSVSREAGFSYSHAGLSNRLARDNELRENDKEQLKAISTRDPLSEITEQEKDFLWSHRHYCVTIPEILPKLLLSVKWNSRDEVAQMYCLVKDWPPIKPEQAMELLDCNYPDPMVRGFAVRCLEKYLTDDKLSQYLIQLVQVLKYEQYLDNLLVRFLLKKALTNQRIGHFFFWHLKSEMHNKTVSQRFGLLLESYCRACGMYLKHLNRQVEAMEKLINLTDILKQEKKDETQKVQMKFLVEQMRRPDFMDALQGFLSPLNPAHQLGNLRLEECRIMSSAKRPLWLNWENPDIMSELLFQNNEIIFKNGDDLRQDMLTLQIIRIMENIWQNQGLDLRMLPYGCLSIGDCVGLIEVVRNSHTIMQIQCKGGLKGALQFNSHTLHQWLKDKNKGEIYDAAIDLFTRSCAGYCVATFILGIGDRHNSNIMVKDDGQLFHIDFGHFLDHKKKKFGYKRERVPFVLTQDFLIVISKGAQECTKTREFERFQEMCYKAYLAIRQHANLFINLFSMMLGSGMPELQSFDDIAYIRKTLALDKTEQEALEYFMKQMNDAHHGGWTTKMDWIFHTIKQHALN
T1 sequence (P27986 whole entry partner): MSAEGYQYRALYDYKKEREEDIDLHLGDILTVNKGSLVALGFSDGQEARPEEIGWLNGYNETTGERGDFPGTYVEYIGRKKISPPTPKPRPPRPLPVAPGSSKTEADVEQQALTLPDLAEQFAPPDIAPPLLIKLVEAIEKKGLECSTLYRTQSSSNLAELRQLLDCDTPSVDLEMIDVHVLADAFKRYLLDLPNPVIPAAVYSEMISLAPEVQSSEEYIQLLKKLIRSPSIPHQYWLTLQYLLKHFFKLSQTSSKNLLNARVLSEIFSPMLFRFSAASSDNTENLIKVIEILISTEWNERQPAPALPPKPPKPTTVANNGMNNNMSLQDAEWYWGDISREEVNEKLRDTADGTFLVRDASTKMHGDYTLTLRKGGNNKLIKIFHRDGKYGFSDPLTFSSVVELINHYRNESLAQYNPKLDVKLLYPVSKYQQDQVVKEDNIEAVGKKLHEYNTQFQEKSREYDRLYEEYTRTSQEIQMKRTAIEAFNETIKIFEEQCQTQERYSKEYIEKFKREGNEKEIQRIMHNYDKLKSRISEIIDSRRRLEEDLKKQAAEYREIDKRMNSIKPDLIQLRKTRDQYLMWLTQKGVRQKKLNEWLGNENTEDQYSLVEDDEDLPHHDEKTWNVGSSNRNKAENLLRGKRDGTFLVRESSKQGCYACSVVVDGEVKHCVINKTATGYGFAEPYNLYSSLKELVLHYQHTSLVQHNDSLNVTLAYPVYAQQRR

Compound | IC50 [1] [nM] | IC50 (mTOR kinase) [nM]
CN1CCN(C(=O)c2ccc(NC(=O)Nc3ccc(-c4nc(N5CCOCC5)c5ccc(-c6ccco6)cc5n4)cc3)cc2)CC1 [Example 158, 1-(4-(7-(furan-2-yl)-4-morpholino-quinazolin-2-yl)phenyl)-3-(4-(4-methylpiperazine-1-carbonyl)phenyl)urea] | < 50 | 50 to 200
Cc1ncccc1-c1ccc2c(N3CCOCC3)nc(-c3ccc(NC(=O)Nc4ccc(C(=O)N(C)C)cc4)cc3)nc2c1 [Example 165, N,N-dimethyl-4-(3-(4-(7-(2-methylpyridin-3-yl)-4-morpholino-quinazolin-2-yl)phenyl)ureido)-benzamide] | < 50 | < 50
Cc1ncccc1-c1ccc2c(N3CCOCC3)nc(-c3ccc(NC(=O)Nc4ccc(C(=O)N(C)C)cc4F)cc3)nc2c1 [Example 167, 3-fluoro-N,N-dimethyl-4-(3-(4-(7-(2-methylpyridin-3-yl)-4-morpholino-quinazolin-2-yl)phenyl)ureido)-benzamide] | < 50 | < 50
COc1ccncc1-c1ccc2c(N3CCOCC3)nc(-c3ccc(NC(=O)Nc4ccc(C(=O)N(C)C)cc4)cc3)nc2c1 [Example 169, 4-(3-(4-(7-(4-methoxypyridin-3-yl)-4-morpholino-quinazolin-2-yl)phenyl)ureido)-N,N-dimethyl-benzamide] | < 50 | < 50
COc1ccc(-c2ccc3c(N4CCOCC4)nc(-c4ccc(NC(=O)Nc5ccc(C(=O)N(C)C)cc5F)cc4)nc3c2)cn1 [Example 170, 3-fluoro-4-(3-(4-(7-(6-methoxypyridin-3-yl)-4-morpholino-quinazolin-2-yl)phenyl)ureido)-N,N-dimethyl-benzamide] | < 50 | 50 to 200
CN(C)C(=O)c1ccc(NC(=O)Nc2ccc(-c3nc(N4CCOCC4)c4ccc(-c5cnn(C)c5)cc4n3)cn2)c(F)c1 [Example 172, 3-fluoro-N,N-dimethyl-4-(3-(5-(7-(1-methyl-1H-pyrazol-4-yl)-4-morpholino-quinazolin-2-yl)pyridin-2-yl)ureido)-benzamide] | < 50 | 201 to 10000
CN(C)C(=O)c1ccc(NC(=O)Nc2ccc(-c3nc(N4CCOCC4)c4cc(F)c(-c5cccnc5)cc4n3)cc2)c(F)c1 [Example 173, 3-fluoro-4-(3-(4-(6-fluoro-4-morpholino-7-(pyridin-3-yl)quinazolin-2-yl)phenyl)ureido)-N,N-dimethyl-benzamide] | < 50 | < 50
CN(C)C(=O)c1ccc(NC(=O)Nc2ccc(-c3nc(N4CCOCC4)c4cc(F)c(-c5cccnc5)cc4n3)cn2)cc1 [Example 175, 4-(3-(5-(6-fluoro-4-morpholino-7-(pyridin-3-yl)quinazolin-2-yl)pyridin-2-yl)ureido)-N,N-dimethyl-benzamide] | < 50 | 50 to 200
CN(C)C(=O)c1ccc(NC(=O)Nc2ccc(-c3nc(N4CCOCC4)c4cc(F)c(-c5cncnc5)cc4n3)cn2)cc1 [Example 176, 4-(3-(5-(6-fluoro-4-morpholino-7-(pyrimidin-5-yl)quinazolin-2-yl)pyridin-2-yl)ureido)-N,N-dimethyl-benzamide] | < 50 | 50 to 200

Further lines, results first:

IC50 [1] [nM] | IC50 (mTOR kinase) [nM] | Compound
50 to 200 | 50 to 200 | CN(C)C(=O)c1ccc(NC(=O)Nc2ccc(-c3nc(N4CCOCC4)c4ccc(-c5ccccn5)cc4n3)cc2F)cc1 [Example 156, 4-(3-(2-fluoro-4-(4-morpholino-7-(pyridin-2-yl)quinazolin-2-yl)phenyl)ureido)-N,N-dimethyl-benzamide]
< 50 | < 50 | COc1ncc(-c2cnc3c(N4CCOCC4)nc(-c4ccc(NC(=O)Nc5ccc(C(=O)N(C)C)cc5F)cc4)nc3c2)cn1 [Example 157, 3-fluoro-4-(3-(4-(7-(2-methoxypyrimidin-5-yl)-4-morpholino-pyrido[3,2-d]pyrimidin-2-yl)phenyl)ureido)-N,N-dimethyl-benzamide]
< 50 | < 50 | Cc1ccc(-c2ccc3c(N4CCOCC4)nc(-c4ccc(NC(=O)Nc5ccc(C(=O)N(C)C)cc5)cc4)nc3c2)cn1 [Example 161, N,N-dimethyl-4-(3-(4-(7-(6-methylpyridin-3-yl)-4-morpholino-quinazolin-2-yl)phenyl)ureido)-benzamide]
< 50 | < 50 | Cc1nn(C)c(C)c1-c1ccc2c(N3CCOCC3)nc(-c3ccc(NC(=O)Nc4ccc(C(=O)N(C)C)cc4)cc3)nc2c1 [Example 162, N,N-dimethyl-4-(3-(4-(4-morpholino-7-(1,3,5-trimethyl-1H-pyrazol-4-yl)quinazolin-2-yl)phenyl)ureido)-benzamide]
< 50 | < 50 | COc1ncccc1-c1ccc2c(N3CCOCC3)nc(-c3ccc(NC(=O)Nc4ccc(C(=O)N(C)C)cc4)cc3)nc2c1 [Example 163, 4-(3-(4-(7-(2-methoxypyridin-3-yl)-4-morpholino-quinazolin-2-yl)phenyl)ureido)-N,N-dimethyl-benzamide]
< 50 | < 50 | CN(C)C(=O)c1ccc(NC(=O)Nc2ccc(-c3nc(N4CCOCC4)c4ccc(-c5cncc(F)c5)cc4n3)cc2)cc1 [Example 164, 4-(3-(4-(7-(5-fluoropyridin-3-yl)-4-morpholino-quinazolin-2-yl)phenyl)ureido)-N,N-dimethyl-benzamide]
< 50 | < 50 | Cc1ccc(-c2ccc3c(N4CCOCC4)nc(-c4ccc(NC(=O)Nc5ccc(C(=O)N(C)C)cc5F)cc4)nc3c2)cn1 [Example 166, 3-fluoro-N,N-dimethyl-4-(3-(4-(7-(6-methylpyridin-3-yl)-4-morpholino-quinazolin-2-yl)phenyl)ureido)-benzamide]
< 50 | < 50 | CN(C)C(=O)c1ccc(NC(=O)Nc2ccc(-c3nc(N4CCOCC4)c4ccc(-c5ccccn5)cc4n3)cc2)c(F)c1 [Example 168, 3-fluoro-N,N-dimethyl-4-(3-(4-(4-morpholino-7-(pyridin-2-yl)quinazolin-2-yl)phenyl)ureido)-benzamide]
201 to 10000 | 201 to 10000 | CN(C)C(=O)c1ccc(NC(=O)Nc2ccc(-c3nc(N4CCOCC4)c4ccc(-c5ccco5)cc4n3)cc2)c(Cl)c1 [Example 171, 3-chloro-4-(3-(4-(7-(furan-2-yl)-4-morpholino-quinazolin-2-yl)phenyl)ureido)-N,N-dimethyl-benzamide]
50 to 200 | < 50 | CN(C)C(=O)c1ccc(NC(=O)Nc2ccc(-c3nc(N4CCOCC4)c4cc(F)c(-c5cncnc5)cc4n3)cc2)c(F)c1 [Example 174, 3-fluoro-4-(3-(4-(6-fluoro-4-morpholino-7-(pyrimidin-5-yl)quinazolin-2-yl)phenyl)ureido)-N,N-dimethyl-benzamide]
< 50 | < 50 | CN(C)C(=O)c1ccc(NC(=O)Nc2ccc(-c3nc(N4CCOCC4)c4ccc(-c5ccc(N)nc5)cc4n3)cc2)cc1 [Example 177, 4-(3-(4-(7-(6-aminopyridin-3-yl)-4-morpholino-quinazolin-2-yl)phenyl)ureido)-N,N-dimethyl-benzamide]
50 to 200 | < 50 | CN(C)C(=O)c1ccc(NC(=O)Nc2ccc(-c3nc(N4CCOCC4)c4ccc(-c5ccc(N)nc5)cc4n3)cc2)c(F)c1 [Example 178, 4-(3-(4-(7-(6-aminopyridin-3-yl)-4-morpholino-quinazolin-2-yl)phenyl)ureido)-3-fluoro-N,N-dimethyl-benzamide]
50 to 200 | < 50 | COc1ccc2c(N3CCOCC3)nc(-c3ccc(NC(=O)Nc4ccc(C(=O)N(C)C)cc4)c(F)c3)nc2c1 [Example 182, 4-(3-(2-fluoro-4-(7-methoxy-4-morpholino-quinazolin-2-yl)phenyl)ureido)-N,N-dimethyl-benzamide]
